Laboratory results published in PubChem BioAssay (NCI).
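Results reflect a 48-hour exposure of cells in 96-well plates to compound at five concentrations. GI50 = concentration required for 50% inhibition of growth. TGI: total growth inhibition.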

Legend:
Assay in all cases: NCI tumour cell line growth inhibition, 48 h
OVCAR-8 ovarian = test system: OVCAR-8 ovarian
SF-268 CNS = test system: SF-268 CNS
HCC-2998 colon = test system: HCC-2998 colon
HL-60(TB) leukemia = test system: HL-60(TB) leukemia
HOP-92 NSCLC = test system: HOP-92 NSCLC
SK-MEL-5 melanoma = test system: SK-MEL-5 melanoma
M14 melanoma = test system: M14 melanoma
RXF 393 renal = test system: RXF 393 renal
SF-295 CNS = test system: SF-295 CNS
RPMI-8226 leukemia = test system: RPMI-8226 leukemia
ACHN renal = test system: ACHN renal
IGROV1 ovarian = test system: IGROV1 ovarian
OVCAR-4 ovarian = test system: OVCAR-4 ovarian
SNB-19 CNS = test system: SNB-19 CNS
NCI/ADR-RES ovarian = test system: NCI/ADR-RES ovarian
TK-10 renal = test system: TK-10 renal
SN12C renal = test system: SN12C renal
SK-OV-3 ovarian = test system: SK-OV-3 ovarian
NCI-H460 lung = test system: NCI-H460 lung
MOLT-4 leukemia = test system: MOLT-4 leukemia
UACC-62 melanoma = test system: UACC-62 melanoma
SK-MEL-2 melanoma = test system: SK-MEL-2 melanoma
K-562 leukemia = test system: K-562 leukemia
HOP-62 NSCLC = test system: HOP-62 NSCLC
A498 renal = test system: A498 renal
OVCAR-5 ovarian = test system: OVCAR-5 ovarian
NCI-H23 lung = test system: NCI-H23 lung
U251 CNS = test system: U251 CNS
MCF7 breast = test system: MCF7 breast
EKVX NSCLC = test system: EKVX NSCLC
SW-620 colon = test system: SW-620 colon
NCI-H226 lung = test system: NCI-H226 lung
HS 578T breast = test system: HS 578T breast
786-0 renal = test system: 786-0 renal
MDA-MB-435 = test system: MDA-MB-435
UACC-257 melanoma = test system: UACC-257 melanoma
NCI-H522 lung = test system: NCI-H522 lung
OVCAR-3 ovarian = test system: OVCAR-3 ovarian
MDA-MB-231 breast = test system: MDA-MB-231 breast
UO-31 renal = test system: UO-31 renal
KM12 colon = test system: KM12 colon
SK-MEL-28 melanoma = test system: SK-MEL-28 melanoma
SR leukemia = test system: SR leukemia
HCT-15 colon = test system: HCT-15 colon
HT29 colon = test system: HT29 colon
COLO 205 colon = test system: COLO 205 colon
CAKI-1 renal = test system: CAKI-1 renal
MALME-3M melanoma = test system: MALME-3M melanoma
BT-549 breast = test system: BT-549 breast
LOX IMVI melanoma = test system: LOX IMVI melanoma
SF-539 CNS = test system: SF-539 CNS
DU-145 prostate = test system: DU-145 prostate
T-47D breast = test system: T-47D breast
CCRF-CEM leukemia = test system: CCRF-CEM leukemia
A549 NSCLC = test system: A549 NSCLC
PC-3 prostate = test system: PC-3 prostate
HCT-116 colon = test system: HCT-116 colon
SNB-75 CNS = test system: SNB-75 CNS

C=CCOc1cccc(/C=C2\SC(=Nc3ccc(O)cc3)NC2=O)c1
GI50 (OVCAR-8 ovarian): 813 nM
TGI (OVCAR-8 ovarian): 14000 nM
GI50 (SF-268 CNS): 1440 nM
TGI (SF-268 CNS): > 22600 nM
GI50 (HCC-2998 colon): 1150 nM
TGI (HCC-2998 colon): 9220 nM
GI50 (HL-60(TB) leukemia): 241 nM
TGI (HL-60(TB) leukemia): 749 nM
GI50 (HOP-92 NSCLC): 863 nM
TGI (HOP-92 NSCLC): 6540 nM
GI50 (SK-MEL-5 melanoma): 555 nM
TGI (SK-MEL-5 melanoma): 2440 nM
GI50 (M14 melanoma): 384 nM
TGI (M14 melanoma): 22900 nM
GI50 (RXF 393 renal): 302 nM
TGI (RXF 393 renal): 3770 nM
GI50 (SF-295 CNS): 505 nM
TGI (SF-295 CNS): 16600 nM
GI50 (RPMI-8226 leukemia): 372 nM
TGI (RPMI-8226 leukemia): 3100 nM
GI50 (ACHN renal): 777 nM
TGI (ACHN renal): 13700 nM
GI50 (IGROV1 ovarian): 543 nM
TGI (IGROV1 ovarian): 22800 nM
GI50 (OVCAR-4 ovarian): 2150 nM
TGI (OVCAR-4 ovarian): 22800 nM
GI50 (SNB-19 CNS): 531 nM
TGI (SNB-19 CNS): 36800 nM
GI50 (NCI/ADR-RES ovarian): 494 nM
TGI (NCI/ADR-RES ovarian): 17100 nM
GI50 (TK-10 renal): 4570 nM
TGI (TK-10 renal): 18800 nM
GI50 (SN12C renal): 953 nM
TGI (SN12C renal): 10100 nM
GI50 (SK-OV-3 ovarian): 1660 nM
TGI (SK-OV-3 ovarian): 15700 nM
GI50 (NCI-H460 lung): 389 nM
TGI (NCI-H460 lung): 5200 nM
GI50 (MOLT-4 leukemia): 523 nM
TGI (MOLT-4 leukemia): > 23800 nM
GI50 (UACC-62 melanoma): 808 nM
TGI (UACC-62 melanoma): 17400 nM
GI50 (SK-MEL-2 melanoma): 2910 nM
TGI (SK-MEL-2 melanoma): 18500 nM
GI50 (K-562 leukemia): 243 nM
TGI (K-562 leukemia): > 100000 nM
GI50 (HOP-62 NSCLC): 660 nM
TGI (HOP-62 NSCLC): 13100 nM
GI50 (A498 renal): 790 nM
TGI (A498 renal): 3770 nM
GI50 (OVCAR-5 ovarian): 2320 nM
TGI (OVCAR-5 ovarian): 24900 nM
GI50 (NCI-H23 lung): 1010 nM
TGI (NCI-H23 lung): 31400 nM
GI50 (U251 CNS): 495 nM
TGI (U251 CNS): 12900 nM
GI50 (MCF7 breast): 361 nM
TGI (MCF7 breast): > 57800 nM
GI50 (EKVX NSCLC): 1470 nM
TGI (EKVX NSCLC): > 100000 nM
GI50 (SW-620 colon): 383 nM
TGI (SW-620 colon): > 80100 nM
GI50 (NCI-H226 lung): 1210 nM
TGI (NCI-H226 lung): 22600 nM
GI50 (HS 578T breast): 414 nM
TGI (HS 578T breast): 12400 nM
GI50 (786-0 renal): 1130 nM
TGI (786-0 renal): 7890 nM
GI50 (MDA-MB-435): 155 nM
TGI (MDA-MB-435): 315 nM
GI50 (UACC-257 melanoma): 9110 nM
TGI (UACC-257 melanoma): > 100000 nM
GI50 (NCI-H522 lung): 406 nM
TGI (NCI-H522 lung): 2980 nM
GI50 (OVCAR-3 ovarian): 284 nM
TGI (OVCAR-3 ovarian): 3150 nM
GI50 (MDA-MB-231 breast): 975 nM
TGI (MDA-MB-231 breast): 6620 nM
GI50 (UO-31 renal): 832 nM
TGI (UO-31 renal): 2510 nM
GI50 (KM12 colon): 433 nM
TGI (KM12 colon): 8860 nM
GI50 (SK-MEL-28 melanoma): 2470 nM
TGI (SK-MEL-28 melanoma): 31200 nM
GI50 (SR leukemia): 108 nM
TGI (SR leukemia): > 63700 nM
GI50 (HCT-15 colon): 358 nM
TGI (HCT-15 colon): > 100000 nM
GI50 (HT29 colon): 3540 nM
TGI (HT29 colon): 29600 nM
GI50 (COLO 205 colon): 2640 nM
TGI (COLO 205 colon): 11100 nM
GI50 (CAKI-1 renal): 466 nM
TGI (CAKI-1 renal): 6430 nM
GI50 (MALME-3M melanoma): 2480 nM
TGI (MALME-3M melanoma): 21900 nM
GI50 (BT-549 breast): 529 nM
TGI (BT-549 breast): 3400 nM
GI50 (LOX IMVI melanoma): 543 nM
TGI (LOX IMVI melanoma): 12700 nM
GI50 (SF-539 CNS): 296 nM
TGI (SF-539 CNS): 1140 nM
GI50 (DU-145 prostate): 399 nM
GI50 (T-47D breast): 495 nM
TGI (T-47D breast): > 100000 nM
GI50 (CCRF-CEM leukemia): 402 nM
TGI (CCRF-CEM leukemia): > 100000 nM
GI50 (A549 NSCLC): 717 nM
TGI (A549 NSCLC): 14900 nM
GI50 (PC-3 prostate): 537 nM
TGI (PC-3 prostate): > 48400 nM
GI50 (HCT-116 colon): 408 nM
TGI (HCT-116 colon): 5380 nM
GI50 (SNB-75 CNS): 189 nM
TGI (SNB-75 CNS): 668 nM
